In patent US8785600B2, “Anti-GCC antibody molecules and related compositions and methods” (Millennium Pharmaceuticals, Inc., priority 2009, dated 2014):
“And” between values parts separate entries of the source, which are not always exact repeats. Identical values can stand only once.

Tests used:
[1] = system: GCC-ECD-Fc (TOK107-hIg); experiment: BIACORE T100 affinity measurement; assay type: binding, human; conditions: for ka (M^−1s^−1) / kd (s^−1): Avg. (95% Conf. Int.); for ka / kd: single replicates, immobilized mAb, 22° C.
Experimental: Step 1: MAb 5F9 (Prep A) was diluted to 20 μg/mL in 10 mM sodium acetate, pH 4.0 and Reference 5F9 MAb (Prep B) was diluted to 10 μg/mL in 10 mM sodium acetate, pH 4.0. Each mAb was covalently immobilized to several CM4 BIACORE chips using standard amine coupling. For each CM4 chip prepared, Prep A 5F9 was immobilized over two flow cells at around 75-100 RU while Prep B 5F9 was immobilized to one flow cell at around 70-80 RU. The remaining fourth flow cell of each CM4 chip was used as the reference flow cell.
Step 2: The stock concentration of GCC-ECD-Fc (TOK107-hIg) was determined using the methods detailed by Pace et al. in Protein Science, 4:2411 (1995), and Pace and Grimsley in Current Protocols in Protein Science 3.1.1-3.1.9 (2003).
Step 3: For each prepared CM4 chip described in Step 1, GCC-ECD-Fc was injected for 2 minutes at a concentration range of 202 nM-1.6 nM (2× serial dilution) followed by a 7 minute dissociation. Samples were randomly injected in triplicate with several buffer inject cycles interspersed for double referencing. […] A flow rate of 100 μL/min was used for all experiments and all surfaces were regenerated with a 20 second pulse of 10 mM Glycine-HCl (pH 2.0). All samples were prepared in the running buffer which was Hepes-buffered saline, 0.005% polysorbate 20, pH 7.4 (HBS-P) with 100 μg/mL of BSA added.
Step 4: All sensorgram (plot of surface plasmon resonance vs time) data were processed with Scrubber 2.0 software (BioLogic Software, Campbell, Australia) and globally fit to a 1:1 interaction model including a term for the mass transport constant km using CLAMP™ software (Myszka and Morton Trends Biochem. Sci. 23:149-150 (1998)).
The 1:1 model provided a very good fit to the data as long as the mAb immobilization levels were kept low enough so that the Rmax resulting from the global analysis of the sensorgram data was at least below 12 RU for each surface. […] Data from two flow cells of GCC-ECD-Fc binding to Prep A 5F9 from the same CM4 chip were simultaneously fit whenever possible, however. […] This isn't surprising due to the fact that GCC-ECD-Fc is a bivalent construct and a higher surface density of immobilized mAb most likely increases the probability that the GCC-ECD-Fc binds avidly to the surface. Replicates reported for this study include only those data that fit well to the 1:1 interaction model. The resulting KD's and rate constants of all replicates for Prep A 5F9 and the Prep B reference mAb are listed in Table 9 and Table 10, respectively.

[2] = system: CT26 hGCC/luc #32 cells; experiment: Pilot efficacy study with naked antibody in CT26 hGCC/luc #32 disseminated model; conditions: for Lung weight, T test P vs. vehicle: end of study
[3] = target: T1, GCC ECD truncation mutants expressed in 293 cells (Homo sapiens, UniProt P25092); experiment: Binding to GCC ECD truncation mutants (IP / Western blot); conditions: Δ1-32
T1 construct: Truncation mutants of the GCC ECD were generated (FL mature peptide and 8 truncations); expressed in transfected cells; host or cells: 293 cells (lysates, immunoprecipitation then anti-FLAG western blot)

[4] = system: GCC-expressing cells (T84 cells compared to MCF-7 cells; vector control cells); experiment: Internalization assay (immunofluorescence microscopy); assay type: cell-based, human; conditions: 10 μg/ml, 37° C.
Experimental: Internalization of anti-GCC antibody molecules was tested in both GCC-expressing cells and vector control cells, using immunofluorescence microscopy. Cells were grown on coverslips and placed on ice for 10 minutes prior to incubation with 10 μg/ml antibody in cold culture medium for 20 minutes on ice. For internalization, antibody-containing medium was replaced with fresh culture medium and the cells were shifted to 37° C. for 2-3 hours or maintained on ice. After rinsing in PBS and a brief fixation in 4% paraformaldehyde at room temperature, cells were permeabilized for 15 min in 0/5% TRITON X-100. The localization of the test antibody was determined using a fluorescently labeled anti-IgG antibody by laser scanning confocal microscopy. Antibody molecules localized to the cell surface of GCC-expressing cells when on ice.
Most of the antibodies generated herein were tested in a number of the assays described above. (T84=human colon tumor cells, MCF7=human breast tumor cells, WB=western blot, IP=immunoprecipitation, IHC=immunohistochemistry; internalization used T84 cells compared to MCF-7 cells)

Chain of GCC-ECD-Fc (TOK107-hIg) (as listed by the source): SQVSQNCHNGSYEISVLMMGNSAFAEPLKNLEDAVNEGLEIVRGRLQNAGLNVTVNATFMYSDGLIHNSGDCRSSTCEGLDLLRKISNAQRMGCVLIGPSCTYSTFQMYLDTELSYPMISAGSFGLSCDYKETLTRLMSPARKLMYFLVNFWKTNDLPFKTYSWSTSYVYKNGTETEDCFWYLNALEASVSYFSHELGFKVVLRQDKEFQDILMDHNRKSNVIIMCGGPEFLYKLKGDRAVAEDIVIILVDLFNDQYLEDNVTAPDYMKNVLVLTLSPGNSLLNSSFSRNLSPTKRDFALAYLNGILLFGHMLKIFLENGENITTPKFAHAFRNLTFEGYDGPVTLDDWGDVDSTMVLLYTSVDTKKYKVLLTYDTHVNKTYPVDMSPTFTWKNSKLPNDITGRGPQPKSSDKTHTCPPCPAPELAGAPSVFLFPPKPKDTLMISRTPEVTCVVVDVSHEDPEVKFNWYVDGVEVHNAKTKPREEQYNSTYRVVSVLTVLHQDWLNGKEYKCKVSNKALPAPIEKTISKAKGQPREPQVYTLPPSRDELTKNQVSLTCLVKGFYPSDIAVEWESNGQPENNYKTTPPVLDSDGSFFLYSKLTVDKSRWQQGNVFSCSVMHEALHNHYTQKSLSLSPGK
T1 sequence (P25092 33-430, stated change not applied): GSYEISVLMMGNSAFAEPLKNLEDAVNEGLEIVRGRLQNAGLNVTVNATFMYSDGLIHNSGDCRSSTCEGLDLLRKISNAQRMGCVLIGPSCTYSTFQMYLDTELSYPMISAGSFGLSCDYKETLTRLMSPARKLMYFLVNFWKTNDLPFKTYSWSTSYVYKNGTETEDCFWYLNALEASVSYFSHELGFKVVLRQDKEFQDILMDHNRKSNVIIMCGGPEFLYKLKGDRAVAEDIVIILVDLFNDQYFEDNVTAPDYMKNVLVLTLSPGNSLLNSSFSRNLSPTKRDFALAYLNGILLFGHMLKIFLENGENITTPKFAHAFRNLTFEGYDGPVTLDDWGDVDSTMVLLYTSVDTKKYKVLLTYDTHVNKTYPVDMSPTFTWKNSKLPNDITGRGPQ

Substance: 5F9: Human anti-GCC mAb (IgG2, kappa) of hybridoma 5F9, ATCC PTA-8132; VH SEQ ID NO:18, VL SEQ ID NO:20; also engineered as IgG1
- ka (M^−1s^−1) ([1]; listed as Prep A 5F9): 1.10 (0.13) × 10^5 M^−1s^−1
- kd (s^−1) ([1]; listed as Prep A 5F9): 1.46 (0.59) × 10^−5 s^−1
- ka (M^−1s^−1) ([1]; listed as Prep B 5F9): 1.07 (0.25) × 10^5 M^−1s^−1
- kd (s^−1) ([1]; listed as Prep B 5F9): 1.13 (0.54) × 10^−5 s^−1
- ka ([1]; listed as Prep A 5F9): 96400 M⁻¹ s⁻¹ and 106000 M⁻¹ s⁻¹ and 120000 M⁻¹ s⁻¹ and 107000 M⁻¹ s⁻¹ and 122000 M⁻¹ s⁻¹
- kd ([1]; listed as Prep A 5F9): 1.77e-05 s⁻¹ and 1.19e-05 s⁻¹ and 1.1e-05 s⁻¹ and 2.15e-05 s⁻¹ and 1.11e-05 s⁻¹
- ka ([1]; listed as Prep B 5F9): 96800 M⁻¹ s⁻¹ and 120000 M⁻¹ s⁻¹ and 90900 M⁻¹ s⁻¹ and 121000 M⁻¹ s⁻¹
- kd ([1]; listed as Prep B 5F9): 7.64e-06 s⁻¹ and 1.24e-05 s⁻¹ and 9.57e-06 s⁻¹ and 1.54e-05 s⁻¹
- Lung weight, T test P vs. vehicle ([2]; 10 mg/kg): < 0.01
- In vivo MRI of lungs ([2]; 40 mg/kg): normal lung presentation was seen without evidence of tumor
- T/C (treatment/control) ([2]; 40 mg/kg and 10 mg/kg, 1×10^5 cells/mouse, day 34p.i, vs vehicle): 0.04 to 0.05
- Lung weight, T test P vs. vehicle ([2]; 40 mg/kg): < 0.05
- T/C compared to the 209 group ([2]; 1×10^5 cells/mouse, day 34p.i): 0.18 to 0.14
- Benefit in 5×10^5 groups ([2]; 5×10^5 cells/mouse): No benefit was seen
- Binding to GCC ECD truncation mutant [3]: binds cells with the Δ1-32 mutation
- Internalization (localization of antibody by confocal microscopy) [4]: punctuate staining within the cell membrane, indicative of internalization
